According to patent US20050209278A1, “Piperidinyl- and piperazinyl-sulfonylmethyl hydroxamic acids and their use as protease inhibitors” (priority 2002, published 2005):
Counter-ions that a name gives are not always drawn.

molecular target: T1, MMP-1 (Homo sapiens, UniProt P03956); assay: In vitro MMP inhibition, Ki determination (fluorogenic substrate II); type: biochemical; details: human recombinant enzyme; 4 μM substrate II; room temperature, 1 hr; read-out: MMP-1 Ki
T1 construct: made in house; host or cells: MMP-1-transfected HT-1080 cells (spent media)
T1 sequence (P03956 100-469): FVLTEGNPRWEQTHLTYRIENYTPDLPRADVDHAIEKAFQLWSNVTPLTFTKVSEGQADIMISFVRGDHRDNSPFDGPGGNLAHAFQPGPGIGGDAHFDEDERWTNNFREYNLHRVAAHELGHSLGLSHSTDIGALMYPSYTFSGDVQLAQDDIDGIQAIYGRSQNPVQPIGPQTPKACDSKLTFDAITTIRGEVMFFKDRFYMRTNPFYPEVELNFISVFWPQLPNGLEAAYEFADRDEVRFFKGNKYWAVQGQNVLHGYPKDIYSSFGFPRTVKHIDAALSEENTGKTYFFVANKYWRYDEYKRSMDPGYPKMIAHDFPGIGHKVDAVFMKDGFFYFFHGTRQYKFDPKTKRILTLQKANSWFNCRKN
Experimental: Several hydroxamic acids and salts thereof were analyzed in in vitro assays to determine their ability to inhibit the MMP cleavage of peptide substrates. […] and IC50 constants were calculated from the assayed hydroxamic acid-MMP interactions.
Human recombinant MMP-1, MMP-2, MMP-9, MMP-13, and MMP-14 were used in this assay. All enzymes were prepared in Assignee's laboratories following usual laboratory procedures. Protocols for the preparation and use of these enzymes are available in the scientific literature. See, e.g., Enzyme Nomenclature (Academic Press, San Diego, Calif., 1992) (and the citations therein). See also, Freije et al., “Molecular cloning and expression of collagenase-3, a novel human matrix metalloproteinase produced by breast carcinomas,” J Biol. Chem., 269(24), 16766-16773 (1994).
The MMP-1 proenzyme was purified from the spent media of MMP-1-transfected HT-1080 cells provided by Dr. Harold Welgus of Washington University (St. Louis, Mo.). The protein was purified on a zinc chelating column.
All MMPs were activated using 4-aminophenylmercuric acetate (“APMA”, Sigma Chemical, St. Louis, Mo.) or trypsin. MMP-9 also was activated using human recombinant MMP-3 (purified in Assignee's laboratory following standard cloning and purification techniques).
Two fluorogenic, methoxycoumarin-containing polypeptide substrates were used in the MMP inhibition assays: [drawing 427] Here, “Dpa” is 3-(2,4-dinitrophenyl)-L-2,3-diaminopropionyl group, and “MCA” is 7-methoxycoumarin-4-yl acetyl. Substrate (I) was purchased from Baychem (Redwood City, Calif.), and substrate II was prepared Assignee's laboratory. Substrate I was used in the IC50 determination assays, while substrate II was used in the Ki determination assays. In the absence of MMP inhibitory activity, either substrate is cleaved at the Gly-Leu peptide bond. This cleavage separates the highly fluorogenic peptide from the 2,4-dinitrophenyl quencher, thus resulting in increase of fluorescent intensity.
The stock solutions of the assayed hydroxamic acids (or salts thereof) were prepared in 1% dimethyl sulfoxide (DMSO). These stock solutions were diluted in Buffer A (100 mM Tris-HCl, 100 mM NaCl, 10 mM CaCl2, 0.05% polyoxyethylene 23 lauryl ether, pH 7.5) to obtain solutions with different hydroxamic acid concentrations, i.e., assay solutions with different concentrations of the assayed MMP inhibitory compound. The experiment controls contained the same amount of Buffer A/DMSO as the assayed sample, but contained no hydroxamic acid (or salt thereof).
The assays from which the Ki determinations were made were performed as follows. The assayed hydroxamic acid samples were incubated in separate wells of untreated white polystyrene plates (Nunc Nalgene International, Rochester, N.Y.), and analyzed on a Tecan SpectraFlour Plus plate reader. The excitation wavelength was 330 nm, and the emission wavelength—420 nm. All samples (assayed hydroxamic acids and controls) were incubated in separate plate wells at room temperature for 1 hr in the presence of 4 μM of MMP substrate (II). In the absence of MMP inhibitory activity, substrate II was cleaved at the Gly-Leu bond resulting in an increase of relative fluorescence. Inhibition was observed as a reduced rate of this increase in relative fluorescence. The various hydroxamic acids were analyzed using a single low enzyme concentration with a single substrate concentration fixed at or below the Km. This protocol is a modification of method by Knight et al., FEBS Lett., 296(3), 263-266 (1992). Apparent inhibitory constants were determined by non-linear regression of reaction velocity as a function of inhibitor and enzyme concentration using Morrison's equation, as described by Kuzmic, Anal. Biochem. 286, 45-50 (2000). […] Since the substrate concentration was chosen to be at or below the Km, the apparent Ki's from this analysis were reported as Ki's without correction for the influence of substrate.

Row | Ki | Compound
1 | > 10 µM | COCCOc1ccc(N2CCN(S(=O)(=O)C3(C(=O)NO)CCOCC3)CC2)cc1 [Example 14, N-hydroxy-4-({4-[4-(2-methoxyethoxy)phenyl]piperazin-1-yl}sulfonyl)tetrahydro-2H-pyran-4-carboxamide Hydrochloride]
2 | 1.47 µM | O=C(NO)C1(S(=O)(=O)N2CCN(c3ccc(OC(F)(F)C(F)F)cc3)CC2)CCOCC1 [Example 4, 4-({4-[4-(1,1,2,2-tetrafluoroethoxy)phenyl]piperazinyl}sulfonyl)perhydro-2H-pyran-4-carbohydroxamic Acid]
3 | > 10 µM | CCCCc1cnc(N2CCN(S(=O)(=O)C3(C(=O)NO)CCOCC3)CC2)cn1 [Example 1, 4-{[4-(5-butylpyrazin-2-yl)piperazin-1-yl]sulfonyl}-N-hydroxytetrahydro-2H-pyran-4-carboxamide Dihydrochloride]
4 | > 10 µM | CCCCCc1ccc(N2CCN(S(=O)(=O)C3(C(=O)NO)CCN(CCOC)CC3)CC2)cc1 [Example 6, N-Hydroxy-1-(2-methoxyethyl)-4-{[4-(4-pentylphenyl)piperazin-1-yl]sulfonyl}piperidine-4-carboxamide Dihydrochloride]

same assay, conditions: value not in parenthesis; read-out: MMP-1 Ki

Row | Ki | Compound
5 | 1.61 µM | CCc1ccc(N2CCN(S(=O)(=O)C3(C(=O)NO)CCOCC3)CC2)nc1 [Example 114]
6 | > 10 µM | CCCCOc1ccc(N2CCN(S(=O)(=O)C3(C(=O)NO)CCN(C(=S)N(C)C)CC3)CC2)cc1 [Example 123]
7 | > 10 µM | COc1ccc(N2CCN(S(=O)(=O)C3(C(=O)NO)CCOCC3)CC2)nc1 [Example 108]
